This note sets out measurements from US11092532B2, “Method and device for label-free, high throughput holographic screening and enumeration of tumor cells in blood” (Texas Tech University System, priority 2017, dated 2021).

Data set [1] has as its system breast cancer cell line MCF-7. The data set can be described thus: dose-dependent cytotoxicity, viability analysis using standard epifluorescence microscopy. The class given is cell-based. The conditions noted are these: FIG. 8B.
Source text: The method involves using a microfluidic device with multiple inlets to flow different samples adjacent to each other as shown in FIG. 8A. Since the flow is laminar, there is no mixing and identity of each sample is encoded spatially into the microfluidic device. Integrating DHM into this multi-inlet device, the inventors can capture holograms where each hologram contains information of the multiple samples that are spatially segregated. […] FIG. 8A is an image showing a multiple entry microfluidic device for parallel loading of multiple samples. Red arrows indicate the recording window for DHM cytometry for drug response analysis. […] For example, in drug screening there is a need to conduct dose response analysis where different drug concentrations are used to test their impact on the viability of cells (see FIG. 8B for viability analysis using standard fluorescence imaging). To achieve parallel analysis, cells treated with different doses of drug can be introduced into the multi-inlet device and label-free DHM can be used to obtain dose-response curves. Cell culture and drug treatment can also be conducted in the inlet wells of the device or additional microfluidic devices can be daisy-chained prior to DHM interrogation.
Data set [2] deals with breast cancer cells MCF7. Briefly: inline-DHM cytometry for drug response analysis. In kind it is cell-based.
Source text: Briefly, as shown in FIG. 1A the in-line DHM arrangement consists of a laser, a spatial filter and collimator assembly, and an inverted optical microscope (IX-71, Olympus Inc.). A He—Ne laser (10 mW, λ, =0.6328 μm, Thorlabs) is used as a light source, operating in continuous wave (CW) mode. The laser beam is filtered and expanded by a spatial filter assembly consisting of a microscope objective (10×, NA=0.25; Thorlabs) and a pinhole (25 μm diameter). The expanded beam is then collimated using a plano-convex lens (focal length, f=100 mm, Thorlabs). The diameter of the collimated beam is approximately 5 mm. This collimated beam of laser light illuminates cells or beads flowing in the microfluidic channel. The flow through the channel is generated by a syringe pump (KD Scientific). The cross-sectional dimensions of the channel are 1000(y)×350(z) μm^2. The 2D hologram of cells or beads is generated in the focal plane of the microscope objective (M=10×, NA=0.25; Thorlabs) of the optical microscope. The magnified image of the hologram is recorded on a CMOS camera (Phantom v310, Vision Research) at a resolution of 512×512 (20 μm/pixel) and 12-bit gray level quantization.
The recoded holograms were transferred to a computer for numerical reconstruction and data analysis.
The probability distribution corresponding to maximum intensity (Imax) of center pixel of focused image of breast cancer cells (MCF7) at different doses of doxorubicin (FIG. 9A) 0.0 μM, (FIG. 9B) 0.0001 μM, (FIG. 9C) 0.01 μM, and (FIG. 9D) 0.1 μM.

Structures are written as SMILES.

With `COc1cccc2c1C(=O)c1c(O)c3c(c(O)c1C2=O)C[C@@](O)(C(=O)CO)C[C@@H]3O[C@H]1C[C@H](N)[C@H](O)[C@H](C)O1` [doxorubicin], the “cytotoxicity (viability of cells)” value in data set [1] is given as “dose-dependent cytotoxicity”. The “maximum intensity (Imax) distribution of focused cell image” value in data set [2] (MCF-7 cells treated with 0.0001 μM doxorubicin, FIG. 9B) is “some are affected and their peak intensity shifts to lower values”; in data set [2] (MCF-7 cells treated with 0.01 μM doxorubicin, FIG. 9C) it was “the number of cells showing lower intensity (Imax) increases”; in data set [2] (MCF-7 cells treated with 0.1 μM doxorubicin, FIG. 9D), “the number of cells showing lower intensity (Imax) increases”.
